These are literature values, as cited in US20170364630A1, “IDENTIFICATION OF CELLULAR ANTIMICROBIAL DRUG TABLETS THROUGH INTERACTOME ANALYSIS” (Vanderbilt University, priority 2014, published 2017).

In brackets after ≈: the same amount, converted by molar mass.

For series [1], the system named is Ebola-related genes (MERTK, FURIN, TYRO3, CTSB, NADK, POLH, TAPT1). Conditions: CMap data, FIG. 8.
In series [2] the test system is calcium channel protein. The note with it: Fish and Antzelevitch 2004.
For series [3], the system named is HIV-1. Conditions: approximate value, Guendel et al. 2010; read-out: IC50, inhibitor of HIV-1.
The subject of series [4] is hepatitis C virus (HCV). The note with it: cell-based quantitative high-throughput screening, He et al. 2015; read-out: EC50, anti-HCV activity.
The subject of series [5] is human enterovirus 71. Conditions: human enterovirus 71-infected mice.
Series [6] deals with HIV-1. The note with it: Szlavik et al. 2004.
In series [7] the test system is poliovirus-infected HeLa cells.
Series [8] concerns the target HIV-1 reverse transcriptase (Human immunodeficiency virus type 1 group M subtype B, UniProt P04585). The note with it: Tan et al. 1991; read-out: IC50 against the HIV-1 reverse transcriptase.

As to `CC[C@H]1[C@@H]2C[C@H]3[C@@H]4N(C)c5ccccc5[C@]45C[C@@H]([C@H]2[C@H]5O)N3[C@@H]1O` [ajmaline], the “Up-regulated host genes following drug treatment” value in series [1] was “MERTK, FURIN, TYRO3, FURIN, and CTSB”. For the same molecule, in series [2], the “Concentration exerting comparable pharmacological activity by inhibiting calcium channel protein activity” value is listed as ≤ 20 μM.

In the case of `O=C1Cc2c([nH]c3ccc([N+](=O)[O-])cc23)-c2ccccc2N1` [alsterpaullone], in series [3], the IC50 is ~0.15 µM.

Regarding `CC1(C)S[C@@H]2[C@H](NC(=O)[C@H](NC(=O)N3CCNC3=O)c3ccccc3)C(=O)N2[C@H]1C(=O)O` [azlocillin], in series [1], the “Down-regulated host genes following drug treatment” value was “TAPT1 and TYRO3”; the “Up-regulated host genes following drug treatment” value was “NADK and POLH”.

In the case of `Clc1ccc(Cn2c(CN3CCCC3)nc3ccccc32)cc1` [clemizole], the EC50 in series [4] is 7.15 µM.

Consider `CN1CCCN(C(c2ccccc2)c2ccc(Cl)cc2)CC1` (stereo not drawn) [homochlorcyclizine], for which, in series [4], the EC50 is 0.47 µM.

For the molecule `O[C@H]1[C@H]2c3cc4c(cc3CN3CCC(=C[C@@H]1O)[C@H]23)OCO4` [lycorine], the “Effect on mortality of infected mice” value in series [5] was “reduces mortality”. Further, the “IC50, anti-HIV-1 activity in MT4 cells” value in series [6] was 0.4 µg/mL (≈ 1.39 µM). Besides, the “Effect on viral protein synthesis” value in series [7] is “inhibits viral protein synthesis”.

`CN1C(C(=O)Nc2ccccn2)=C(O)c2ccccc2S1(=O)=O` [piroxicam]: the “Up-regulated host genes following drug treatment” value in series [1] was “FURIN and MERTK”.

As for `C[n+]1cc2c3c(ccc2c2ccc4cc5c(cc4c21)OCO5)OCO3` [sanguinarine nitrate], the IC50 in series [8] is 150 to 451 µM.
